In general, IC50 refers to the concentration that inhibits the measured activity by half.

Consider 1 compound from PMC8210154, “Tumor-selective, antigen-independent delivery of a pH sensitive peptide-topoisomerase inhibitor conjugate suppresses tumor growth without systemic toxicity” (NAR Cancer, 2021).

Positions count from the first letter of the chain named. “Also recorded” adds a separate entry of the source.

Data set [1] concerns the target T1, TOP1 protein levels in HCT116 cells (Homo sapiens, UniProt P11387).
T1 construct: endogenous in cells; host or cells: HCT116 cells
T1 sequence (P11387 1-765): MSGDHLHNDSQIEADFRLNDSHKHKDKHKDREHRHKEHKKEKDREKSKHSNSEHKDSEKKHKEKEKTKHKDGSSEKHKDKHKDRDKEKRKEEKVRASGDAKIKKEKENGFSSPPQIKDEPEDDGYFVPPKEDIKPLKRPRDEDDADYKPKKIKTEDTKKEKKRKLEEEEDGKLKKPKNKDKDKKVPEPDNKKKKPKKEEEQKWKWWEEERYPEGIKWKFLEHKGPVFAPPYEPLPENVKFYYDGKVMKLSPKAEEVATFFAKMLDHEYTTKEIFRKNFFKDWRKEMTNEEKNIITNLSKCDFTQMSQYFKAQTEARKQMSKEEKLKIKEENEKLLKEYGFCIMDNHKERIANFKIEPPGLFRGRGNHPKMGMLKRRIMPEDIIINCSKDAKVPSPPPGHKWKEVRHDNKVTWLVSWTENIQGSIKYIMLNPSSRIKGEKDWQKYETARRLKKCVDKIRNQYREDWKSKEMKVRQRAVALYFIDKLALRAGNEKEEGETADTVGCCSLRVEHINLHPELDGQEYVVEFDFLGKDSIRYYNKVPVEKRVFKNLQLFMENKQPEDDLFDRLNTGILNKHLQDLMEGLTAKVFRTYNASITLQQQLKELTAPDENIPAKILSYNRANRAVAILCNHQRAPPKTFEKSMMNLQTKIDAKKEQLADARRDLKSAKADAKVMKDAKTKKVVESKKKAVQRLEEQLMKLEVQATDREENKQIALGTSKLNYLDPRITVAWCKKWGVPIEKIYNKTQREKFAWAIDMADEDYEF
The experiment in a line: TOP1 FACS assay, HCT116 cells dosed in vitro. It is filed as cell-based. To be noted: 24 h, read-out: IC50 for TOP1 protein levels. How it is done:
HCT116 cells were plated at 2.5 × 10^5/mL in 2 mL DMEM^+ in six-well plates. Cells were allowed to attach overnight in 37°C incubator before compound addition. […] Cells were scraped, washed with PBS and counted.
(§1) Tumor and bone marrow cells collected 24 h after dosing were permeabilized and fixed for 20 min on ice in the dark (Cytofix/Cytoperm Becton Dickinson; #554714), then washed 2× with Perm Wash. Cells were stained with rabbit anti-topoisomerase 1 antibody (Abcam; #109374) at 1 μg/ml on ice in the dark for 30 min and washed 2×, followed by staining with secondary antibody goat anti-rabbit IgG AF647 (Jackson ImmunoResearch; #111-605-144 diluted 1:1000) on ice in dark for 30 min. After a final 2× wash, the reduction of topoisomerase I (TOP1) protein levels was evaluated by collecting 10,000 (tumor) or 30,000 (BM) cells and determining the number of TOP1 positive stained cells on a BD Accuri™ flow cytometer.

Data set [2] concerns the target T2, TOP1 protein levels in rat bone marrow cells (Rattus norvegicus, UniProt Q9WUL0).
T2 construct: from tissue; host or cells: rat bone marrow cells, dosed ex vivo
T2 sequence (Q9WUL0 1-767): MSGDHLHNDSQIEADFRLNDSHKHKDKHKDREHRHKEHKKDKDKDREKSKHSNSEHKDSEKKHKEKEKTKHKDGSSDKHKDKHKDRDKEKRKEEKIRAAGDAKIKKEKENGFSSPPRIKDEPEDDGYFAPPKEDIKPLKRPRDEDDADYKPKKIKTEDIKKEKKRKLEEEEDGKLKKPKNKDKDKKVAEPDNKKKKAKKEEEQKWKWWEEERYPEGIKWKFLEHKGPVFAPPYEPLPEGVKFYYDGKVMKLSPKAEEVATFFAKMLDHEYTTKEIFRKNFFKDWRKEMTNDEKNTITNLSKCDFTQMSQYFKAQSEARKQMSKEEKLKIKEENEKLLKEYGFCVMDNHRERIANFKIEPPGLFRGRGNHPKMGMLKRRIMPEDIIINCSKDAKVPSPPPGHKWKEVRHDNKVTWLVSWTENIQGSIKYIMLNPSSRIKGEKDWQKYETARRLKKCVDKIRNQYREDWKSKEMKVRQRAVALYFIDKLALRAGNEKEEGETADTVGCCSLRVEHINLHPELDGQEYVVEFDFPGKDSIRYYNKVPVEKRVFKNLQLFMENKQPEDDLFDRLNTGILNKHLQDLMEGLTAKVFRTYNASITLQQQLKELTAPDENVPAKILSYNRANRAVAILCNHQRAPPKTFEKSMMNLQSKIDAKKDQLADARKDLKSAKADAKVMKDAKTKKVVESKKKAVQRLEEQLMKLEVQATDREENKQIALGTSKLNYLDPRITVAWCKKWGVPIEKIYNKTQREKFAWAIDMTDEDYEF
The experiment in a line: TOP1 FACS assay, rat bone marrow cells dosed ex vivo. The data set is classed as cell-based. To be noted: rat bone marrow cells in vitro, 24 h; read-out: IC50 for TOP1 protein levels. Here is the method:
Naïve Sprague-Dawley rat bone marrow cells were plated at 1 × 10^6/ml in 2 mL of RPMI^+ in six-well plates. Cells were allowed to incubate for 3 h at 37°C before compound addition. […] Cells were harvested, washed with PBS and counted.
as §1
A general note: In flow cytometry, cells or beads pass a laser one at a time.

Data set [3] has as its target T3, TOP1 protein levels in HCT116 tumor tissue (Homo sapiens, UniProt P11387).
T3 construct: Xenograft tumors were excised, weighed, and minced then were digested to single cells; from tissue; host or cells: HCT116 xenograft tumors from athymic nude mice
T3 sequence (P11387 1-765): T1 sequence (P11387 1-765)
Nature of the data set: TOP1 FACS assay, HCT116 xenografted tumor of dosed mice. To be noted: 2.5 μmol/kg for 4 days, 24 h post last dose. The data set is classed as in vivo. Here is the method: The vials capped and vortexed for 2 min.
Xenograft tumors were excised, weighed, and minced then were digested to single cells with an enzyme mix (Miltenyi; #130-095-929) for 40 min shaking at 37°C. Enzymes were inactivated by adding equal volume of DMEM^+. Digested cells were sequentially filtered through 70 μm then 40 μm filters and centrifuged at 700 rpm for 7 min at 4°C.
as §1

Data set [4] addresses T4, TOP1 protein levels in bone marrow (Mus musculus, UniProt Q04750).
T4 construct: Mouse bone marrow cells were isolated as described above; from tissue; host or cells: bone marrow of athymic nude mice bearing HCT116 xenografts
T4 sequence (Q04750 1-767): T2 sequence (Q9WUL0 1-767) with D77E, K90R, P141L, L167S, A197P, G239S, K665R
The experiment in a line: TOP1 FACS assay, bone marrow of dosed mice. The data set is classed as in vivo. The settings on record: 2.5 μmol/kg for 4 days, 24 h post last dose. Here is the method:
Mouse bone marrow cells were isolated as described above.
as §1

Data set [5] is described as follows: Toxicity in rats (body weight, duodenum H&E histology). It is filed as in vivo. An excerpt:
Duodenal tissue samples were fixed in 10% neutral buffered formalin, processed and embedded in paraffin. Tissue cross sections (5 μm) were mounted on positively charged microscope slides and stained with hematoxylin and eosin (H&E) (PolyScientific R&D, New York). Images were taken of tissue sections by standard light microscopy using an EVOS FL Cell Imaging System (Life Technologies) for histomorphological evaluation of intestinal inflammation.

In data set [6] the test system is HCT116 cells. The experiment in a line: In vitro cell killing, HCT116 cells. The settings on record: Homo sapiens, HCT-116, data not shown. It is filed as cell-based. Here is the method:
(§2) Microplate-based short-term viability and synergy assays were performed as described previously ([18]).

In data set [7] the test system is MDA-MB-231 cells. The experiment in a line: Short-term viability assay, MDA-MB-231 cells. It is filed as cell-based. To be noted: Homo sapiens. How it is done: as §2
The test system of data set [8] is MDA-MB-231 cells. Nature of the data set: Synergy assay (Bliss) exatecan with talazoparib, MDA-MB-231 cells. It is filed as cell-based, human. To be noted: Bliss synergy analysis.
Data set [9] relates to γH2AX in HCT116 flank tumors. Nature of the data set: γH2AX immunofluorescence assay in HCT116 flank tumors. The data set is classed as in vivo, mice. To be noted: 1.15 mg/kg exatecan, P < 0.001. Here is the method:
Tumors were collected as detailed above, and FFPE tumor slides were created for IF staining. Antigen retrieval was performed using a heat-induced epitope retrieval (HIER) method, with TRIS-EDTA pH 9.0. Staining with primary antibody (mouse anti-human γH2AX; 1:500, Invitrogen) followed by secondary antibody (Goat anti-mouse Ax594; 1:1000, Invitrogen) was then performed. Images were obtained with a Keyence imager. Data analysis was performed in ImageJ and CellProfiler ([16]). Raincloud plots and heatmap were generated in R version 4.0.3 ([17]). Statistical analysis for γH2AX expression was performed using Kruskal–Wallis test, followed by Dunn's multiple comparison test (GraphPad Prism 9.1.0).

Data set [10] relates to MKN45 xenografts. Nature of the data set: MKN45 xenograft in nude mice. The settings on record: MKN45 flank model, 2.3 mg/kg (equimolar to 20 mg/kg CBX-12).
Data set [11] is described as follows: Toxicity in mice (bone marrow cell counts, body weight, stomachs).
Protocol: Following tumor collection, mice were euthanized by cervical dislocation under anesthesia in accordance with the American Veterinary Medical Association (AVMA) Guidelines for the Euthanasia of Animals. Femurs were removed, and bone marrow was extruded into 50 mL conical tubes by flushing the bones with a 23-gauge needle fitted on a 5cc syringe containing PBS + 2% fetal bovine serum (FBS). Bone marrow was homogenized by gentle pipetting and filtered through 100 μm nylon mesh filters and cells were pelleted by centrifugation at 1200 rpm for 5 min at 4°C. Red blood cells were lysed with 3 mL of lysis buffer for 2 min at room temperature. PBS was added to a volume of 25 mL and cells were re-pelleted by centrifugation as described above. Cell pellets were suspended in 5 mL of PBS and cell count was assessed by trypan blue exclusion on a TC-20 cell counter (BioRad).

Turning to `CC[C@@]1(O)C(=O)OCc2c1cc1n(c2=O)Cc2c-1nc1cc(F)c(C)c3c1c2[C@@H](N)CC3` [exatecan], the DC50 in data set [1] is 24.8 nM; in data set [2] it was 27.3 nM. Also, the “TOP1 protein levels in HCT116 flank tumor tissue” value in data set [3] is given as “decreased”. The “TOP1 protein levels in bone marrow” value in data set [4] is given as “decreased”. The “GI toxicity microscopically (H&E of duodenum)” value in data set [5] (rat, in vivo) is on record as “significant GI toxicity”. The body weight entry was “significant and unrecoverable body weight reductions” in [5] (rats (Figure 3C)); “significant and unrecoverable body weight reductions” in data set [11] (mice (Figure 3B)). The IC50 in data set [6] was found to be 0.2 nM; in data set [7], 0.21 nM. Also, the “interaction when combined with talazoparib” value in data set [8] was “robust synergy”. For the same compound, the “γH2AX expression after second cycle compared to first cycle” value in data set [9] is given as “significant higher γH2AX expression; also recorded: significantly higher γH2AX expression”. For the same compound, in data set [10], the tolerability entry was “not tolerated and was lethal in all animals”. The “bone marrow cell counts” value in data set [11] (mice, equimolar doses) was “drastic bone marrow suppression”.
